The source of these data is PubChem BioAssay (NCI).

Holding throughout (experiment): NCI-60 cell line screen, 48 h
Test [1] relates to ACHN renal.
Test [2] concerns MOLT-4 leukemia.
Test [3] has as its system NCI-H23 lung.
Test [4] has as its system OVCAR-3 ovarian.
Test [5] has as its system OVCAR-4 ovarian.
Test [6] deals with SNB-19 CNS.
Test [7] concerns SNB-75 CNS.
The test system of test [8] is SR leukemia.
Test [9] deals with UACC-257 melanoma.
The subject of test [10] is UACC-62 melanoma.

“And” between values parts separate entries of the source, which are not always exact repeats. Identical values can stand only once.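 96-well plates; 48 h exposure; 5 concentrations. Endpoints by linear interpolation between flanking doses. Not reached: highest tested concentration assigned. GI50 is the concentration that inhibits growth by half. TGI marks complete inhibition of growth.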

In the case of `O=C(c1ccco1)c1c(C(F)(F)F)n([O-])c2cc(C(F)(F)F)ccc2[n+]1=O`, the GI50 was 0.338 µM in test [1]; 0.0773 µM in [2]; 1.15 µM in test [3]; 1.43 µM in [4]; 1.35 µM in test [5]; 1.47 µM in [6]. In addition, the GI50 in test [7] is 1.55 µM; in test [8] it was 0.0394 µM; in [9], 1.55 µM; in [10] it was 1.44 µM. For the same compound, the TGI in test [1] was found to be 0.748 µM; in [2] it was 0.162 µM; in test [3], 2.62 µM; in [4] it was 3.13 µM; in test [5] it was 3.94 µM; in [6] it was 2.99 µM. Moreover, the TGI is 2.96 µM in [7], 0.265 µM in [8], 3.27 µM in test [9] and 2.89 µM in test [10].
As to `CC(C)c1cccc(O)c(=O)c1`, the GI50 in [1] is 1.75 µg/mL; in test [3], 35 µg/mL; in [4], 2.5 µg/mL; in [6] it was 1.2 µg/mL; in test [8] it was 0.496 µg/mL; in test [9], 2.33 µg/mL. Also, the GI50 in test [10] is 4.17 µg/mL. Besides, the TGI in test [1] is 18.3 µg/mL and 48.9 µM; in test [2], > 46.9 µM; in test [3], > 75 µg/mL and > 78.8 µM; in test [5], > 100 µM; in test [7], > 92.6 µM; in test [9], 23 µg/mL and 46.6 µM. Further, the TGI in test [10] was 28.6 µg/mL and > 41.3 µM.
Take `CCC1(OC(=O)CN)C(=O)OCc2c1cc1n(c2=O)Cc2cc3ccccc3nc2-1` (centres undefined): the GI50 was 0.00476 µM in test [1]; 0.00396 µM in test [2]; 0.0191 µM in [3]; 0.308 µM in test [4]; 0.256 µM in [5]; 0.0128 µM in test [6]. For the same compound, the results for the GI50 in [7], in [9] and in test [10] were 0.0183 µM, 0.0859 µM and 0.00787 µM, respectively. Besides, the TGI in test [1] is 0.183 µM and 0.0628 µM; in test [2], 0.0305 µM; in [3], 0.15 µM and 0.0424 µM; in test [4], 0.731 µM and 0.557 µM; in test [5], 0.994 µM and 4.55 µM; in test [6], 4.91 µM. The TGI in test [7] is 0.246 µM and 0.484 µM; in test [8] it was < 0.0347 µM; in test [9] it was 0.721 µM and 0.545 µM; in test [10] it was 0.0895 µM and 0.0596 µM.
For `COc1cc(NS(C)(=O)=O)ccc1NCc1c2ccccc2nc2ccccc12`, the TGI in test [1] was > 100 µM; in test [2], 35 µM; in test [3] it was > 100 µM; in test [4], > 100 µM; in test [5] it was 22.3 µM; in test [6], > 100 µM. Moreover, the TGI was > 100 µM in test [7], 62.9 µM in test [8], > 100 µM in test [9] and > 100 µM in [10].
Take `COC(=O)C(CC(=O)Nc1ccc(Cl)c(Cl)c1)C(=O)C(=O)Nc1ccc(Cl)c(Cl)c1` (centres undefined): the TGI in [1], in [2], in test [3], in [4], in test [5] and in [6] was > 100 µM each time. The TGI in test [7], in [8], in test [9] and in [10] was > 100 µM each time.
`Cc1cccc(C)c1N1C(=O)C(=O)C(c2nc3ccccc3s2)/C(=N/NC(=O)c2ccccc2O)C1=O` (centres undefined): the TGI in test [1] was > 89.4 µM; in test [2], > 100 µM; in test [3], 39.1 µM; in test [4] it was > 100 µM; in test [5], > 100 µM; in [6], > 79.8 µM. Further, the TGI is 69.5 µM in test [7], 86.3 µM in test [8], 68.2 µM in test [9] and 8.31 µM in [10].
As for `C=C1C(=O)O[C@H]2[C@H]1CC/C(Cn1cc(-c3ccc(F)cc3)nn1)=C\CC[C@@]1(C)O[C@@H]21`, the GI50 was 0.182 µM in [1]; 0.387 µM in [2]; 1.78 µM in test [3]; 0.491 µM in test [4]; 1.29 µM in test [5]; 3.39 µM in test [6]. Further, the GI50 in [7] is 1.25 µM; in test [8], 0.251 µM; in test [9], 1.47 µM; in test [10], 1.26 µM. Also, the TGI worked out at 0.445 µM in test [1]; 2 µM in test [2]; 3.71 µM in test [3]; 1.69 µM in [4]; 3.03 µM in test [5]; 13 µM in test [6]. Moreover, the TGI was 2.5 µM in test [7], 1.18 µM in test [8], 3 µM in test [9] and 2.65 µM in test [10].
With `COc1ccc(NC(=O)c2sc3nc(C)c(C(=O)/C=C/c4cccc(OC)c4)cc3c2N)cc1`, the GI50 in test [1] was 1.08 µM; in test [2] it was 1.5 µM; in test [3], 2.35 µM; in test [4], 0.939 µM; in [5], 4.01 µM; in [6] it was 1.72 µM. Besides, the GI50 is 1.45 µM in test [7], 1.24 µM in test [8], 1.74 µM in test [9] and 1.39 µM in test [10]. Moreover, the TGI is 2.49 µM in test [1]; > 50 µM in [2]; 18.6 µM in [3]; 2.68 µM in test [4]; 17.8 µM in [5]; 6.73 µM in test [6]. Further, the TGI in [7] was determined as 4.87 µM; in test [8], 5.92 µM; in test [9] it was 11.7 µM; in [10], 4.11 µM.
In the case of `CCCCCCCCCCCCCCCCOP(=O)([O-])OCC[N+](C)(C)C`, the GI50 in [1] was 1.6 µM; in test [2], 0.868 µM; in test [3] it was 3.17 µM; in test [4], 3.74 µM; in test [5], 2.88 µM; in test [6] it was 1.21 µM. Besides, the GI50 in [7] was 1.43 µM; in test [8] it was 0.546 µM; in [9], 2.31 µM; in [10] it was 1.34 µM. The TGI was 3.63 µM and 30.8 µM in [1]; 13.3 µM and 65.3 µM in test [3]; 14.8 µM and 48.4 µM in [4]; 12.6 µM and 38.6 µM in test [5]; 3.46 µM and 28.5 µM in [8]; 6.98 µM and 64.7 µM in test [9].
As to `COc1cc(C(C)c2cc3c(cc2OCCNC(=O)COc2cc4c(cc2C(C)c2cc(OC)c(OC)c(OC)c2)OCO4)OCO3)cc(OC)c1OC` (centres undefined), the TGI in test [1] was > 100 µM; in test [2] it was 71.8 µM; in [3], > 100 µM; in [4], > 100 µM; in [5] it was > 100 µM; in [6], > 100 µM. The TGI in test [7], in test [8], in [9] and in test [10] was > 100 µM in each case.
For `CCOC(=O)C(=CNC(=S)N=Nc1c(O)[nH]c2ccccc12)C(=O)OCC`, the TGI in test [1], in [2], in [3], in test [4], in test [5] and in test [6] was > 100 µM each time. In addition, the TGI in test [7], in test [8], in [9] and in [10] was > 100 µM in each case.
For the compound `O=C(CI)Nc1ccc(O)c2ccccc12`, the GI50 in test [1] was 1.49 µM; in test [2], 0.846 µM; in test [3], 1.67 µM; in [4] it was 0.857 µM; in test [5], 0.575 µM; in test [6] it was 3.39 µM. The GI50 is 1.61 µM in test [7], 0.726 µM in test [8], 1.54 µM in test [9] and 1.67 µM in test [10]. The TGI in test [1] amounted to 2.84 µM; in test [2], 8.18 µM; in test [3] it was 3.69 µM; in test [4], 2.23 µM; in test [5], 1.23 µM; in test [6], 11.7 µM. For the same compound, the TGI is 4.98 µM in [7], 3.75 µM in test [8], 3.14 µM in test [9] and 3.44 µM in test [10].
Regarding `Cc1ccc2nc3cc(C)c(=O)cc-3sc2c1`, the TGI in test [1], in test [2], in [3], in [4], in test [5] and in [6] was > 100 µM each time. For the same compound, the TGI in [7] was 84.9 µM; in [8], > 100 µM; in test [9], > 100 µM; in test [10], 82.8 µM.
Regarding `Cc1nc(N)nc(N)c1CCCc1ccccc1`, the TGI in test [1], in test [2], in test [3], in [4], in [5] and in test [6] was > 100 µM in each case. The TGI in [7], in test [8], in test [9] and in test [10] was > 100 µM in each case.
For the compound `Cc1ccc(S(=O)(=O)c2ccc(C)cc2[N+](=O)[O-])cc1`, the TGI in test [1], in test [2], in test [3], in [4], in [5] and in test [6] was > 100 µM throughout. In addition, the TGI in [7], in test [8], in test [9] and in test [10] was > 100 µM each time.
Take `N/N=C(\c1nc2ccc(Cl)cc2[nH]c1=O)C(O)c1ccc(Cl)c(Cl)c1` (centres undefined): the TGI was > 100 µM in test [1]; > 100 µM in test [2]; > 100 µM in test [3]; > 100 µM in test [4]; 87.8 µM in [5]; > 100 µM in test [6]. Besides, the TGI in test [7], in test [8], in test [9] and in test [10] was > 100 µM each time.
`COC1=C(Cl)C(=O)c2c(O)ccc(O)c2C1=O`: the TGI in test [1] was found to be 2.31 µM; in test [2], 0.489 µM; in [3], 4.62 µM; in test [4] it was 1.04 µM; in [5], 3.66 µM; in [6], 17.1 µM. Also, the TGI came to 17.1 µM in [7], 1.3 µM in test [8], 3.41 µM in test [9] and 4.12 µM in test [10].
Regarding `NC(=O)c1cccc(OCC(O)CO)c1` (centres undefined), the TGI in [1], in test [2], in test [3], in [4], in test [5] and in test [6] was > 100 µM in each case. Also, the TGI in test [7], in test [8], in test [9] and in test [10] was > 100 µM throughout.
For `CCn1c2c(c3ccccc31)[C@@H](c1ccc(Cl)cc1)CC1C(=O)N(c3ccccc3)C(=O)C21` (some centres undefined), the TGI in [1], in [2], in test [3], in [4], in [5] and in test [6] was > 100 µM in each case. Moreover, the TGI in test [7] is > 100 µM; in test [8], 98.8 µM; in test [9], > 100 µM; in [10] it was > 100 µM.
For `CC1(C)C2CCC1C(=O)[C@@]1(C=CC(=O)CC1)C2` (some centres undefined), the TGI in test [1], in test [2], in test [3], in test [4], in test [5] and in test [6] was > 100 µM each time. Besides, the TGI in test [7], in [8], in test [9] and in test [10] was > 100 µM in each case.
On to `C1CN(P2(N3CC3)=NP(N3CC3)(N3CC3)=NP(N3CC3)(N3CC3)=N2)CCO1` (centres undefined), for which the TGI in [1], in [2], in test [3], in [4], in test [5] and in test [6] was > 100 µM throughout. Besides, the TGI in test [7] was > 100 µM; in [8] it was > 47.4 µM; in test [9] it was > 100 µM; in [10], > 100 µM.
